Tested on: pigs, 75 min LAD balloon occlusion and 3 h reperfusion
Assay: Porcine ischemia/reperfusion model: global ejection fraction by contrast ventriculography
Assay type: in vivo, pig
Conditions: for Global Ejection Fraction, Baseline: before ischemia and dosing; for Global Ejection Fraction, 180 Minutes after End of Ischemia: control 34 ± 3
Excerpt: Arterial access was achieved via bilateral femoral artery cut-downs for the insertion of 8F sheaths. Central venous and carotid access was achieved via a neck incision to expose the external jugular vein and common carotid artery. Animals were then anticoagulated with 50 U/kg of unfractionated heparin to maintain an activated clotting time (ACT) between 250-350 seconds, prior to ischemia. A 7-8 Fr pigtail catheter was placed in the left ventricular cavity to measure pressure and for injection of […] microspheres. Angiography was performed to define coronary anatomy and measure the diameter of the left anterior descending coronary artery (LAD) at the point of intended balloon occlusion. A coronary sinus catheter was placed via the external jugular vein under fluoroscopic guidance for coronary venous sampling. Baseline cardiodynamic and hemodynamic data were measured using a solid state transducer-tipped catheter in the left ventricle (Millar Instruments, Houston, Tex.) to measure left ventricular pressure, and a fluid-filled transducer connected to the side port of the femoral artery sheath to measure peripheral arterial pressure. Approximately 3-4 million neutron-activated microspheres (BioPhysics Assay Laboratory, Inc, Worcester, Ma) (15 μm) were delivered through a pig-tail catheter into the left ventricle over a 30 second period, to quantify regional myocardial blood flow (RMBF). Simultaneously with injection, a reference sample was withdrawn at a rate of 7 cc/min from the femoral artery sheath, for 90 seconds during and after injection of microspheres. A contrast ventriculogram (60° right anterior oblique) was obtained to assess global and regional myocardial function at baseline. An angioplasty balloon catheter sized to exceed ambient diameter by 1 mm (range chosen was 3.0-4.0 mm) was then inserted into the proximal LAD, after the first diagonal branch. […] In addition, 2% lidocaine (4-8 ml total) was administered during ischemia, as needed, to attenuate ventricular arrhythmias. Balloon occlusion time was 75 minutes with coronary occlusion confirmed by contrast angiography, ST segment changes on electrocardiography, and quantitatively confirmed by microspheres delivered at the end of ischemia, as described above. Episodes of ventricular fibrillation were immediately treated with electrical cardioversion delivered at 200 Joules. During the ischemic period, animals were randomly assigned to receive either saline vehicle or 2-O, 3-O desulfated heparin (ODSH) at a dose of 5 mg/kg, 15 mg/kg, or 45 mg/kg as an IV bolus at 2 minutes prior to deflation of the balloon (pharmacological postconditioning), and repeated at 90 minutes of reperfusion. Following deflation of the angioplasty balloon, animals underwent 3 hours of further reperfusion and observation. Microspheres were again injected to measure myocardial blood flow at 15 minutes of reperfusion and again at 180 minutes of reperfusion. At the end of 180 minutes of reperfusion, animals were euthanized with an IV injection of pentobarbital sodium (100 mg/kg) and the heart was excised to quantify the area at risk, infarct size, regional myocardial blood flow, and myeloperoxidase activity. Hemodynamic data (left ventricular and arterial blood pressure) and derived variables were recorded continuously using 10× and Datanalyst software (EMKA Technologies, Falls Church, Va.).
Left ventricular contrast angiography was performed at baseline, ischemia, and 180 minutes after relief of ischemia. Contrast (Hypaque, approximately 50 mL) was rapidly injected via a pigtail catheter using a power injector. Left ventricular ejection fraction (LVEF) and regional function of the antero-lateral wall was calculated using the area-length method, which outlined the ventricle at the end of systole and diastole. LVEF and regional function were analyzed independently by 2 blinded observers.

With 2-O, 3-O desulfated heparin [ODSH] the “Global Ejection Fraction, Ischemia” value (ODS 15 mg/kg (second line, r8)) was 23 ± 3%, the “Global Ejection Fraction, Baseline” value (ODS 15 mg/kg (second line, r8)) was 57 ± 4% and the “Global Ejection Fraction, 180 Minutes after End of Ischemia” value (“Global Ejection Fraction, 180 Minutes” below) (ODS 15 mg/kg (second line, r8)) was 42 ± 4%. For the same substance, the “Global Ejection Fraction, Ischemia” value (ODS 45 mg/kg) was 30 ± 3%, the “Global Ejection Fraction, Baseline” value (ODS 45 mg/kg) was 60 ± 2% and the “Global Ejection Fraction, 180 Minutes” value (ODS 45 mg/kg) was 38 ± 6%. The “ejection fraction at 3 hours after the end of ischemia versus control” value (ODS-treated animals, all doses) was “tended to be higher”, the “Global Ejection Fraction, Baseline” value (line printed ODS 15 mg/kg (first of two, r7), control 52 ± 2) was 61 ± 2% and the “Global Ejection Fraction, Ischemia” value (line printed ODS 15 mg/kg (first of two, r7), control 25 ± 2) was 30 ± 3%. For the same substance, the “Global Ejection Fraction, 180 Minutes” value (line printed ODS 15 mg/kg (first of two, r7)) was 42 ± 5%.
